target: hCB1R (Homo sapiens, UniProt P21554); assay: In vitro functional assay (FLIPR, intracellular Ca2+) with recombinant HEK293 cells, CB1; type: cell-based; parameters: expressed in transfected cells; host or cells: HEK293; conditions: recombinant HEK293 cells expressing CB1 and Galpha16; 20 min preincubation, then reference agonist; Ca2+ change; read-out: hCB1R: FLIPR; IC50
Sequence (P21554 whole entry): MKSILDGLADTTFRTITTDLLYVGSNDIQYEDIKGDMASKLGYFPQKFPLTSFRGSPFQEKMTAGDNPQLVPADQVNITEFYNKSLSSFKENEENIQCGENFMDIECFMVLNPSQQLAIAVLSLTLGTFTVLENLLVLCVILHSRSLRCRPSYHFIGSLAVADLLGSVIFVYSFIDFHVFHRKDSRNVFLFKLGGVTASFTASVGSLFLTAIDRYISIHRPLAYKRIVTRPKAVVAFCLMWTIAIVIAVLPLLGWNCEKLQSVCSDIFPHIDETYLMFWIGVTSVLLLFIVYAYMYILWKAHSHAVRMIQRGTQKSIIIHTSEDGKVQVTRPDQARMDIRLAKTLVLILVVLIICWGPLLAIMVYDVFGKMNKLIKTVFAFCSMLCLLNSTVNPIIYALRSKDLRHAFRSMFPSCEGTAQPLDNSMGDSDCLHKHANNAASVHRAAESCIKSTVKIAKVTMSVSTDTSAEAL
Description: In Vitro Functional Assays with Recombinant Cells:

SMILES	IC50 [nM]
COc1ncc(Nc2ccccc2CN2C(=O)N(c3ccc(C#N)c(C(F)(F)F)c3)C(=O)C2(C)C)cn1 [Example 180, 4-{3-[2-(2-methoxypyrimidin-5-ylamino)benzyl]-4,4-dimethyl-2,5-dioxoimidazolidin-1-yl}-2-trifluoromethylbenzonitrile]	1
CC1(C)C(=O)N(c2ccc(C#N)c(C(F)(F)F)c2)C(=O)N1Cc1ccc(F)cc1Nc1ccc(C(=O)O)cc1 [Example 133, 4-{2-[3-(4-cyano-3-trifluoromethylphenyl)-5,5-dimethyl-2,4-dioxoimidazolidin-1-ylmethyl]-5-fluorophenylamino}benzoic acid]	10
Cc1cnccc1Nc1ccccc1CN1C(=O)N(c2ccc(C#N)c(C(F)(F)F)c2)C(=O)C1(C)C [Example 181, 4-{4,4-dimethyl-3-[2-(3-methylpyridin-4-ylamino)benzyl]-2,5-dioxoimidazolidin-1-yl}-2-trifluoromethylbenzonitrile]	8
CC1(C)C(=O)N(c2ccc(C#N)c(C(F)(F)F)c2)C(=O)N1Cc1ccc(C(F)(F)F)cc1Nc1ccc(C(=O)O)cc1 [Example 107, 4-{2-[3-(4-cyano-3-trifluoromethylphenyl)-5,5-dimethyl-2,4-dioxoimidazolidin-1-ylmethyl]-5-trifluoromethylphenylamino}benzoic acid]	112
CC(C)(C)c1cc(N2C(=O)N(Cc3ccc(F)cc3Nc3ccc(C(=O)O)cc3)C(C)(C)C2=O)ccc1C#N [Example 169, 4-{2-[3-(3-tert-butyl-4-cyanophenyl)-5,5-dimethyl-2,4-dioxoimidazolidin-1-ylmethyl]-5-fluorophenylamino}benzoic acid]	9
CC1(C)C(=O)N(c2ccc(C#N)c(C(F)(F)F)c2)C(=O)N1Cc1ccccc1Nc1ccc(S(C)(=O)=O)cc1Cl [Example 14, 4-{3-[2-(2-chloro-4-methylsulfonylphenylamino)benzyl]-4,4-dimethyl-2,5-dioxoimidazolidin-1-yl}-2-trifluoromethylbenzonitrile]	108
COC(=O)C1=C[C@@H](O)[C@H](O)[C@@H](Oc2ccc(Nc3ccccc3CN3C(=O)N(c4ccc(C#N)c(C(F)(F)F)c4)C(=O)C3(C)C)cc2)O1 [Example 145, methyl (4R,5S,6S)-6-(4-{2-[3-(4-cyano-3-trifluoromethylphenyl)-5,5-dimethyl-2,4-dioxoimidazolidin-1-ylmethyl]phenylamino}phenoxy)-4,5-dihydroxy-5,6-dihydro-4H-pyran-2-carboxylate]	14
CC1(C)C(=O)N(c2ccc(F)c(C(F)(F)F)c2)C(=O)N1Cc1ccc(F)cc1Nc1ccc(S(C)(=O)=O)cc1 [Example 213, 1-[4-fluoro-2-(4-methanesulfonylphenylamino)benzyl]-3-(4-fluoro-3-trifluoromethylphenyl)-5,5-dimethylimidazolidine-2,4-dione]	117
CC1(C)C(=O)N(c2ccc(C#N)c(C(F)(F)F)c2)C(=O)N1Cc1ccccc1Nc1ccc(C(=O)NCCS(=O)(=O)O)cc1 [Example 164, 2-(4-{2-[3-(4-Cyano-3-trifluoromethylphenyl)-5,5-dimethyl-2,4-dioxoimidazolidin-1-ylmethyl]phenylamino}benzoylamino)ethanesulfonic acid]	137
Cc1cc(N2C(=O)N(Cc3ccc(F)cc3Nc3ccc(C(N)=O)cc3)C(C)(C)C2=O)ccc1C#N [Example 190, 4-{2-[3-(4-Cyano-3-methylphenyl)-5,5-dimethyl-2,4-dioxoimidazolidin-1-ylmethyl]-5-fluorophenylamino}benzamide]	76
CC(C)(C)Oc1ncc(Nc2ccccc2CN2C(=O)N(c3ccc(C#N)c(C(F)(F)F)c3)C(=O)C2(C)C)c(OC(C)(C)C)n1 [Example 208, 4-{3-[2-(2,4-di-tert-butoxypyrimidin-5-ylamino)benzyl]-4,4-dimethyl-2,5-dioxoimidazolidin-1-yl}-2-trifluoromethylbenzonitrile]	13
